Our source for the IC50, Activity and Kd values is ChEMBL document CHEMBL6127035, “Novel pyridazinone derivatives bind to KSRP: Synthesis, anti-tumor biological evaluations and modelling insights” (Eur J Med Chem, 2024).

As a reminder, the IC50 is the concentration at which inhibition is half-maximal. One may read the Kd as a measure of binding affinity in units of concentration.

Active and inactive are the calls of the source. The calls are words filed in the database; no cut-off is given here. A value given as a limit tells only on which side of the number the result lay.

Data set [1] has as its system 4T1. The data set is described as follows: Antiproliferative activity against mouse 4T1 cells assessed as reduction in cell viability incubated for 2 days by MTT assay. The format is functional, cell-based. The following applies: 4T1, 48 h. In general terms: Tetrazolium assays rely on reduction of a dye to a coloured formazan, in cell work by metabolically active cells.

In data set [2] the test system is MCF7. Description: Antiproliferative activity against human MCF7 cells assessed as reduction in cell viability incubated for 2 days by MTT assay. The settings on record: MCF7, 48 h. The format is functional, cell-based.
For data set [3], the system named is MDA-MB-231. The data set is described as follows: Antiproliferative activity against human MDA-MB-231 cells assessed as reduction in cell viability incubated for 2 days by MTT assay. The format is functional, cell-based. The settings on record: MDA-MB-231, 48 h.
Data set [4] has as its system KB. The data set is described as follows: Antiproliferative activity against human KB cells assessed as reduction in cell viability incubated for 2 days by MTT assay. The format is functional, cell-based. The settings on record: 48 h.
In data set [5] the test system is MIA PaCa-2. The data set is described as follows: Antiproliferative activity against human MIA PaCa-2 cells assessed as reduction in cell viability incubated for 2 days by MTT assay. The settings on record: MIA PaCa-2, 48 h. The format is functional, cell-based.
Data set [6] has as its system NCI-H460. Description: Antiproliferative activity against human NCI-H460 cells assessed as reduction in cell viability incubated for 2 days by MTT assay. The format is functional, cell-based. The following applies: NCI-H460, 48 h.
For data set [7], the system named is A549. The data set is described as follows: Antiproliferative activity against human A549 cells assessed as reduction in cell viability incubated for 2 days by MTT assay. The format is functional, cell-based. The settings on record: A549, 48 h.
The test system of data set [8] is HCT-116. The data set is described as follows: Antiproliferative activity against human HCT-116 cells assessed as reduction in cell viability incubated for 2 days by MTT assay. The format is functional, cell-based. The following applies: HCT-116, 48 h.
For data set [9], the system named is U-87 MG. Description: Antiproliferative activity against human U-87 MG cells assessed as reduction in cell viability incubated for 2 days by MTT assay. The format is functional, cell-based, U-87MG ATCC. The settings on record: 48 h.
Data set [10] in a line: Cytotoxicity against human L02 cells assessed as reduction in cell viability incubated for 2 days by MTT assay. The format is toxicity, cell-based.
Data set [11] concerns the target T1, Far upstream element-binding protein 2 (Homo sapiens) (UniProt Q92945).
T1 sequence (whole entry): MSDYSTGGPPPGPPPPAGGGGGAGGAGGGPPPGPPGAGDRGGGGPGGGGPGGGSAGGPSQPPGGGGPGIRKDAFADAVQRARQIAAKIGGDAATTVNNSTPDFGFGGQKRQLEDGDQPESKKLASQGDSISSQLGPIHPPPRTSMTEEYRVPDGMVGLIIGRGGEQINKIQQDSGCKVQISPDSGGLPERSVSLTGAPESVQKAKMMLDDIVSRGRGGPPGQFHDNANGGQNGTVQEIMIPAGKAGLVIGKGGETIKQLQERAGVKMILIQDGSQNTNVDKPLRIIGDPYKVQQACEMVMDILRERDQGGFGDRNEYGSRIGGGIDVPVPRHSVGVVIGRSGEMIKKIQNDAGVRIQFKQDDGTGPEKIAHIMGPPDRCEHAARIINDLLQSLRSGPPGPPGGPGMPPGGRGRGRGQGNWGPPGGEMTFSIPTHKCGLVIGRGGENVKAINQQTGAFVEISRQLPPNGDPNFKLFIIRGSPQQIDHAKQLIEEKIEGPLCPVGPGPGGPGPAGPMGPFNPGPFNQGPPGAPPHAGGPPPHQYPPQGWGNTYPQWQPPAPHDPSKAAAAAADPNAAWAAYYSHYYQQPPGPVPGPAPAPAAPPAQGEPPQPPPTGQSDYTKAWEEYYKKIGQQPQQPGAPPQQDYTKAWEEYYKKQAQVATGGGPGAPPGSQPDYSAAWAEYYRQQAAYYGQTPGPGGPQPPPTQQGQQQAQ
The data set is described as follows: Binding affinity to recombinant full-length KSRP (unknown origin) by SPR analysis. (In general: In SPR one partner is held on a chip, and binding of the other changes the refractive index at the surface.)

The target in data set [12] is T2, Far upstream element-binding protein 2 (Homo sapiens, UniProt Q92945).
T2 sequence (Q92945 whole entry): T1 sequence (whole entry)
The data set is described as follows: Binding affinity to recombinant full-length KSRP (unknown origin) assessed as dissociation constant by SPR analysis.

Data set [13] has as its target T1, Far upstream element-binding protein 2 (Homo sapiens). The data set is described as follows: Binding affinity to full length KSRP (unknown origin) incubated overnight by SDS-PAGE based immunoblot analysis. In general terms: Immunoblotting shows a protein as a band on a membrane.
Data set [14] has the same target. The data set is described as follows: Binding affinity to full-length KSRP (1 to 715 residues) (unknown origin) extracted from Escherichia coli incubated overnight by SDS-PAGE based immunoblot analysis.
The target is the same in data set [15]. The data set is described as follows: Binding affinity to KSRP KH23 domain (214 to 413 residues) (unknown origin) extracted from Escherichia coli incubated overnight by SDS-PAGE based immunoblot analysis.

Regarding `CCN(CCOC)S(=O)(=O)c1ccc(-n2ncc(Cl)c(Cl)c2=O)cc1`, the figures for the IC50 in data set [1], in [2] and in [3] were 1.8 µM, above 10 µM and above 10 µM, respectively.

In the case of `COCC(C)NS(=O)(=O)c1ccc(-n2ncc(NCCCCCNC(=O)CCCC[C@@H]3SC[C@@H]4NC(=O)N[C@@H]43)c(Cl)c2=O)cc1` (some centres not stated), the IC50 in data set [4] and in data set [5] was above 50 µM throughout.

On to `NCCCCNS(=O)(=O)c1ccc(-n2ncc(Cl)c(Cl)c2=O)cc1`, for which the IC50 in [1] is above 10 µM; in data set [2] it was above 20 µM; in data set [3], above 50 µM.

As for `COCCNS(=O)(=O)c1ccc(-n2ncc(Cl)c(Cl)c2=O)cc1`, the 50% inhibitory concentration (IC50) amounted to 1.72 µM in [1]; 4.96 µM in [2]; 6.08 µM in data set [3]; 1.04 µM in data set [6]; 0.47 µM in [4]; 1.26 µM in data set [7]. Further, the concentration for half-maximal inhibition (IC50) in [8] was determined as 0.47 µM; in data set [9], 0.58 µM; in data set [5], 0.39 µM. For the same compound, in [10], the IC50 at 2 days came to 4.07 µM.

In the case of `CN(CCOS(C)(=O)=O)S(=O)(=O)c1ccc(-n2ncc(Cl)c(Cl)c2=O)cc1`, the half-inhibitory concentration (IC50) in data set [1] worked out at 2.1 µM; in [2], 5.18 µM; in data set [3], 16 µM; in data set [6], 0.66 µM; in data set [4] it was 0.38 µM; in data set [7] it was 1.96 µM. Besides, the results for the IC50 in data set [8], in data set [9] and in data set [5] were 0.73 µM, 0.32 µM and 0.39 µM, respectively. Moreover, in data set [10], the IC50 at 2 days worked out at 4.24 µM.

As for `CCN(C)S(=O)(=O)c1ccc(-n2ncc(Cl)c(Cl)c2=O)cc1`, the IC50 was 11.3 µM in [1], 4.1 µM in [2] and above 50 µM in data set [3].

For the compound `CN(CCN(C)S(=O)(=O)c1ccc(-n2ncc(Cl)c(Cl)c2=O)cc1)S(=O)(=O)c1ccc(-n2ncc(Cl)c(Cl)c2=O)cc1`, the half-maximal inhibitory concentration (IC50) in data set [1] was above 10 µM; in [2] it was above 20 µM; in data set [3], above 50 µM.

Consider `COCC(C)NS(=O)(=O)c1ccc(-n2ncc(Cl)c(Cl)c2=O)cc1` (configuration not stated), for which the concentration for half-maximal inhibition (IC50) in data set [1] worked out at 4.04 µM; in [2] it was 8.17 µM; in data set [3], 16.1 µM. In addition, the Activity result in data set [11] is “Dose-Dependent Effect”. Further, the Kd in data set [12] was 38.3 µM.

For the compound `CNCCOc1cnn(-c2ccc(S(=O)(=O)N(C)CCOS(C)(=O)=O)cc2)c(=O)c1Cl`, the IC50 in data set [1] is above 10 µM; in data set [2] it was above 20 µM; in data set [3] it was above 50 µM.

Regarding `O=c1c(Cl)c(Cl)cnn1-c1ccc(S(=O)(=O)NCCCN2CCCC2)cc1`, the IC50 in data set [1] was determined as 1.45 µM; in [2], 4.43 µM; in data set [3], 9.11 µM; in [6], 1.94 µM; in data set [4], 0.58 µM; in data set [7] it was 1.8 µM. The figures for the IC50 in [8], in [9] and in data set [5] were 0.99 µM, 0.7 µM and 0.87 µM, respectively. Also, the IC50 at 2 days in [10] turned out to be 8.15 µM.

On to `CCN(CCCN1CCCC1)S(=O)(=O)c1ccc(-n2ncc(OC)c(Cl)c2=O)cc1`, for which the IC50 in [1], in data set [2] and in data set [3] was above 20 µM in each case.

`CCN(CCOCCNC(=O)OC(C)(C)C)S(=O)(=O)c1ccc(-n2ncc(Cl)c(Cl)c2=O)cc1`: the concentration for half-maximal inhibition (IC50) was above 10 µM in data set [1], above 20 µM in data set [2] and 27.2 µM in data set [3].

For the compound `O=C(CCCC[C@@H]1SC[C@@H]2NC(=O)N[C@@H]21)NCCCCNS(=O)(=O)c1ccc(-n2ncc(Cl)c(Cl)c2=O)cc1`, the IC50 in data set [1] came out at 2.15 µM; in data set [2] it was 8.28 µM; in data set [3], 2.55 µM; in data set [4] it was 6.77 µM; in data set [5], 3.22 µM. In addition, the outcome in data set [13], in data set [14] and in data set [15] was Active. In addition, the Kd in [12] worked out at 17.7 µM.

With `CC(CO)NS(=O)(=O)c1ccc(-n2ncc(Cl)c(Cl)c2=O)cc1` (configuration not stated), the IC50 in data set [1] is 1.82 µM; in data set [2], 4.45 µM; in data set [3], 7.57 µM; in data set [6], 1.02 µM; in [4], 0.5 µM; in data set [7], 2.07 µM. The IC50 in [8] was found to be 0.87 µM; in [9] it was 0.58 µM; in data set [5], 0.44 µM. In addition, the IC50 at 2 days in data set [10] amounted to 4.66 µM.

As for `CC(C)C(CO)NS(=O)(=O)c1ccc(-n2ncc(Cl)c(Cl)c2=O)cc1` (configuration not stated), the IC50 in data set [1] was 1.45 µM; in data set [2] it was 5.18 µM; in [3], 14.3 µM; in data set [6], 0.74 µM; in data set [4], 0.35 µM; in data set [7], 1.27 µM. For the same compound, the concentration for half-maximal inhibition (IC50) turned out to be 0.36 µM in [8], 0.36 µM in data set [9] and 0.42 µM in data set [5]. Further, the IC50 at 2 days in data set [10] stood at 3.64 µM.
